Measurements reported in patent US10323027B2, “2,3-dihydro-4H-1,3-benzoxazin-4-one derivatives as modulators of cholinergic muscarinic M1 receptor” (Takeda Pharmaceutical Company Limited, priority 2015, dated 2019).
pEC50: −log10 of the molar value.

Target: T1, human M1 receptor (hCHRM1) (Homo sapiens, UniProt P11229)
T1 construct: expressed in transfected cells
T1 sequence (P11229 1-460): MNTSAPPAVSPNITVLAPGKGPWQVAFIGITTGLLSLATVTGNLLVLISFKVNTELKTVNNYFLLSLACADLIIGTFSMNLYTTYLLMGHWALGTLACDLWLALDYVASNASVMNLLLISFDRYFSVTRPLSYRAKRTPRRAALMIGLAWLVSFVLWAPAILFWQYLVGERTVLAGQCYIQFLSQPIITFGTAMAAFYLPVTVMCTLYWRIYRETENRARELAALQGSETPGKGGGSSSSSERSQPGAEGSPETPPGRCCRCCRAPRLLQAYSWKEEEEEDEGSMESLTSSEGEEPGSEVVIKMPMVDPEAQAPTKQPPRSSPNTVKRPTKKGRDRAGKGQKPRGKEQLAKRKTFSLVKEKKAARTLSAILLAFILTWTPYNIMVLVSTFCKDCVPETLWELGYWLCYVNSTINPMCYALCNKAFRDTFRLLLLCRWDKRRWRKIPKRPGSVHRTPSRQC
Test: Measurement of M1 receptor positive allosteric modulator (M1PAM) activity, Ca2+ fluorescence by FLIPRtetra (Experimental Example 1)
Type: cell-based
Settings: for activity (%) at 10 μM: 10 μM test compound, 100% = acetylcholine 1 μM, 0% = DMSO; for pEC50: inflection point of concentration-dependent curve, in presence of acetylcholine at EC20 (0.8-1.0 nM), CHO-K1 cells expressing hCHRM1, read-out: IP value
Procedure: Measurement of M1 Receptor Positive Allosteric Modulator (M1PAM) Activity
The activity of a test compound in the presence of acetylcholine at EC20 concentration (final concentration 0.8-1.0 nM), which affords an action corresponding to about 20% of the maximum activity, was measured as PAM activity. The method is as follows. CHO-K1 cells stably expressing a human M1 receptor (hCHRM1) were plated on a 384-well black clear bottom plate (BD Falcon) at 5,000 cells/well, and cultured in an incubator at 37° C., 5% CO2 for 1 day. The medium in the cell plate was removed, and a dye solution (prepared by adding Recording medium (DOJINDO LABORATORIES) to a final concentration of 1×concentration, Fluo-4 AM (DOJINDO LABORATORIES) to a final concentration of 2.5 μg/mL, Pluronic F127 (DOJINDO LABORATORIES) to a final concentration of 0.08%, and probenecid (DOJINDO LABORATORIES) to a final concentration of 1.25 mM to assay buffer (HBSS (Invitrogen), 20 mM HEPES (Invitrogen), 0.1% BSA (Wako Pure Chemical Industries, Ltd.))) was added at 30 μL/well. The cells were left standing in the incubator at 37° C., 5% CO2 for 30 min, and further left standing at room temperature for 30 min. A test compound prepared by diluting with assay buffer containing 3.2-4.0 nM acetylcholine was added at 10 μL/well, and the fluorescence was measured by FLIPRtetra (Molecular Devices) for 1 min every 1 second. With the definition that the amount of change in the fluorescence on addition of acetylcholine (final concentration 1 μM) is 100% and that on addition of DMSO instead of a test compound is 0%, the activity (%) of the test compound was calculated, and the inflection point in the concentration-dependent curve of the test compound was calculated as IP values.

**Q.** For `COc1c(Cc2ccc(-n3cccn3)nc2)cc2c(c1F)OCN([C@H]1CCC[C@@H]1O)C2=O` (relative stereo) [Example 15, 8-fluoro-3-(trans-2-hydroxycyclopentyl)-7-methoxy-6-((6-(1H-pyrazol-1-yl)pyridin-3-yl)methyl)-2,3-dihydro-4H-1,3-benzoxazin-4-one], which “activity (%) at 10 μM” value is on record?
**A.** The value was 92%.

**Q.** What about the pEC50 of the same compound?
**A.** The pEC50 was 7.72.

**Q.** Which “activity (%) at 10 μM” value does the source give for `Cc1cc2c(cc1CN1CCC(F)(F)CC1)C(=O)N([C@H]1CCCC[C@@H]1O)CO2` (relative stereo) [Example 85, 6-((4,4-difluoropiperidin-1-yl)methyl)-3-(trans-2-hydroxycyclohexyl)-7-methyl-2,3-dihydro-4H-1,3-benzoxazin-4-one] here?
**A.** Its value is 104%.

**Q.** And the pEC50?
**A.** Its pEC50 is 6.96.

**Q.** Which “activity (%) at 10 μM” value does the source give for `O=C1c2cc(Cc3ccc(Cl)nc3)c3ccccc3c2OCN1[C@H]1COCC[C@@H]1O` [Example 4, 1,5-anhydro-2-(6-((6-chloropyridin-3-yl)methyl)-4-oxo-2H-naphtho[2,1-e][1,3]oxazin-3(4H)-yl)-2,4-dideoxy-L-threo-pentitol] here?
**A.** Its value is 109%.

**Q.** What about the pEC50 of the same compound?
**A.** Its pEC50 is 8.49.

**Q.** `Cc1c(Cc2ccc(-n3cccn3)nc2)cc2c(c1Cl)OCN([C@H]1CCC[C@@H]1O)C2=O` (relative stereo) [Example 51, 8-chloro-3-(trans-2-hydroxycyclopentyl)-7-methyl-6-((6-(1H-pyrazol-1-yl)pyridin-3-yl)methyl)-2,3-dihydro-4H-1,3-benzoxazin-4-one] was tested. Which “activity (%) at 10 μM” value did it give?
**A.** Its value is 101%.

**Q.** What about the pEC50 of the same compound?
**A.** Its pEC50 is 8.01.

**Q.** How did the “activity (%) at 10 μM” value turn out when `Cc1c(Cc2ccc(-c3ccn(C)n3)nc2)cc2c(c1C)OCN([C@H]1COCC[C@@H]1O)C2=O` [Example 37, 1,5-anhydro-2,4-dideoxy-2-(7,8-dimethyl-6-((6-(1-methyl-1H-pyrazol-3-yl)pyridin-3-yl)methyl)-4-oxo-2H-1,3-benzoxazin-3(4H)-yl)-L-threo-pentitol] was run?
**A.** Its value is 109%.

**Q.** What about the pEC50 of the same compound?
**A.** Its pEC50 is 8.92.

**Q.** With `Cc1cc2c(cc1Cc1ccc(-n3cccn3)nc1)C(=O)N([C@H]1CCCC[C@@H]1O)CO2` (relative stereo) [Example 36, 3-(trans-2-hydroxycyclohexyl)-7-methyl-6-((6-(1H-pyrazol-1-yl)pyridin-3-yl)methyl)-2,3-dihydro-4H-1,3-benzoxazin-4-one] as the compound, how does the “activity (%) at 10 μM” value read?
**A.** Its value is 108%.

**Q.** What about the pEC50 of the same compound?
**A.** The pEC50 was 7.92.

**Q.** For `Cc1ccc(Cc2cc3c(cc2C)OCN([C@H]2CCCC[C@@H]2O)C3=O)cn1` (relative stereo) [Example 33, 3-(trans-2-hydroxycyclohexyl)-7-methyl-6-((6-methylpyridin-3-yl)methyl)-2,3-dihydro-4H-1,3-benzoxazin-4-one], which “activity (%) at 10 μM” value is on record?
**A.** Its value is 104%.

**Q.** What about the pEC50 of the same compound?
**A.** Its pEC50 is 7.41.

**Q.** Which “activity (%) at 10 μM” value does the source give for `Cc1ccc(Cc2cc3c(c(C)c2C)OCN([C@H]2CCC[C@@H]2O)C3=O)cn1` [Example 11, 3-((1S,2S)-2-hydroxycyclopentyl)-7,8-dimethyl-6-((6-methylpyridin-3-yl)methyl)-2,3-dihydro-4H-1,3-benzoxazin-4-one] here?
**A.** The value was 95%.

**Q.** And the pEC50?
**A.** The pEC50 was 8.07.

**Q.** `Cc1cc2c(cc1Cc1ccc(Cl)nc1)C(=O)N([C@H]1CCCC[C@@H]1O)CO2` (relative stereo) [Example 62, 6-((6-chloropyridin-3-yl)methyl)-3-(trans-2-hydroxycyclohexyl)-7-methyl-2,3-dihydro-4H-1,3-benzoxazin-4-one] was tested. Which “activity (%) at 10 μM” value did it give?
**A.** The value was 91%.

**Q.** How did the “activity (%) at 10 μM” value turn out when `COc1c(Cc2ccc(-n3ccnc3)nc2)cc2c(c1F)OCN([C@H]1CCC[C@@H]1O)C2=O` (relative stereo) [Example 48, 8-fluoro-3-(trans-2-hydroxycyclopentyl)-6-((6-(1H-imidazol-1-yl)pyridin-3-yl)methyl)-7-methoxy-2,3-dihydro-4H-1,3-benzoxazin-4-one] was run?
**A.** The value was 106%.

**Q.** And the pEC50?
**A.** Its pEC50 is 8.13.

**Q.** Which “activity (%) at 10 μM” value does the source give for `Cc1c(Cc2ccc(-n3cccn3)cc2)cc2c(c1F)OCN([C@H]1COCC[C@@H]1O)C2=O` [Example 1, 8-fluoro-3-((3S,4S)-4-hydroxytetrahydro-2H-pyran-3-yl)-7-methyl-6-(4-(1H-pyrazol-1-yl)benzyl)-2,3-dihydro-4H-1,3-benzoxazin-4-one] here?
**A.** The value was 96%.

**Q.** What about the pEC50 of the same compound?
**A.** Its pEC50 is 8.74.

**Q.** Which results are given for `Cc1c(Cc2ccc(-c3ccn(C)n3)cc2)cc2c(c1F)OCN([C@H]1CCC[C@@H]1O)C2=O` [Example 9, 8-fluoro-3-((1S,2S)-2-hydroxycyclopentyl)-7-methyl-6-(4-(1-methyl-1H-pyrazol-3-yl)benzyl)-2,3-dihydro-4H-1,3-benzoxazin-4-one]?
**A.** activity (%) at 10 μM: 98%; pEC50: 8.34

**Q.** `O=C1c2cc(CN3CC[S+]([O-])CC3)c3ccccc3c2OCN1[C@H]1CCC[C@@H]1O` [Example 60, 3-((1S,2S)-2-hydroxycyclopentyl)-6-((1-oxidothiomorpholin-4-yl)methyl)-2,3-dihydro-4H-naphtho[2,1-e][1,3]oxazin-4-one] was tested. Which “activity (%) at 10 μM” value did it give?
**A.** Its value is 105%.

**Q.** What about the pEC50 of the same compound?
**A.** The pEC50 was 7.66.

**Q.** How did the “activity (%) at 10 μM” value turn out when `COc1ccc(Cc2cc3c(c(C)c2C)OCN([C@H]2COCC[C@@H]2O)C3=O)cn1` [Example 29, 3-((3S,4S)-4-hydroxytetrahydro-2H-pyran-3-yl)-6-((6-methoxypyridin-3-yl)methyl)-7,8-dimethyl-2,3-dihydro-4H-1,3-benzoxazin-4-one] was run?
**A.** Its value is 106%.

**Q.** And the pEC50?
**A.** The pEC50 was 7.85.

**Q.** How did the “activity (%) at 10 μM” value turn out when `Cc1c(Cc2ccc(Cl)nc2)cc2c(c1C)OCN([C@H]1COCC[C@@H]1O)C2=O` (relative stereo) [Example 31, 1,5-anhydro-2-(6-((6-chloropyridin-3-yl)methyl)-7,8-dimethyl-4-oxo-2H-1,3-benzoxazin-3(4H)-yl)-2,4-dideoxy-threo-pentitol] was run?
**A.** The value was 99%.

**Q.** What about the pEC50 of the same compound?
**A.** Its pEC50 is 7.77.

**Q.** What does the source list for `Cc1ccc(Cc2cc3c(c4ccccc24)OCN(CC2CCCO2)C3=O)cn1` (stereo not shown) [Example 68, 6-((6-methylpyridin-3-yl)methyl)-3-(tetrahydrofuran-2-ylmethyl)-2,3-dihydro-4H-naphtho[2,1-e][1,3]oxazin-4-one]?
**A.** activity (%) at 10 μM: 90%; pEC50: 7.32

**Q.** `Cc1ccc(Cc2cc3c(c(F)c2C)OCN([C@H]2CCCC[C@@H]2O)C3=O)cn1` [Example 27, 8-fluoro-3-((1S,2S)-2-hydroxycyclohexyl)-7-methyl-6-((6-methylpyridin-3-yl)methyl)-2,3-dihydro-4H-1,3-benzoxazin-4-one] was tested. Which “activity (%) at 10 μM” value did it give?
**A.** The value was 105%.

**Q.** What about the pEC50 of the same compound?
**A.** Its pEC50 is 8.22.

**Q.** `Cc1c(Cc2ccc(-n3cccn3)cc2)cc2c(c1F)OCN([C@H]1CCC[C@@H]1O)C2=O` [Example 5, 8-fluoro-3-((1S,2S)-2-hydroxycyclopentyl)-7-methyl-6-(4-(1H-pyrazol-1-yl)benzyl)-2,3-dihydro-4H-1,3-benzoxazin-4-one] was tested. Which “activity (%) at 10 μM” value did it give?
**A.** Its value is 104%.

**Q.** What about the pEC50 of the same compound?
**A.** The pEC50 was 8.07.

**Q.** For `O=C1c2cc(CN3CCOCC3)c3ccccc3c2OCN1[C@H]1CCC[C@@H]1O` [Example 77, 3-((1S,2S)-2-hydroxycyclopentyl)-6-(morpholin-4-ylmethyl)-2,3-dihydro-4H-naphtho[2,1-e][1,3]oxazin-4-one], which “activity (%) at 10 μM” value is on record?
**A.** The value was 104%.

**Q.** And the pEC50?
**A.** The pEC50 was 7.20.

**Q.** For `Cc1c(Cc2ccc(-n3cccn3)cc2)cc2c(c1F)OCN(CC1CCCO1)C2=O` (stereo not shown) [Example 78, 8-fluoro-7-methyl-6-(4-(1H-pyrazol-1-yl)benzyl)-3-(tetrahydrofuran-2-ylmethyl)-2,3-dihydro-4H-1,3-benzoxazin-4-one], which “activity (%) at 10 μM” value is on record?
**A.** Its value is 104%.

**Q.** And the pEC50?
**A.** Its pEC50 is 7.12.

**Q.** Which results are given for `N#CC1CCN(Cc2cc3c(c4ccccc24)OCN([C@H]2CCC[C@@H]2O)C3=O)C1` (stereo partly drawn) [Example 75, 1-((3-((1S,2S)-2-hydroxycyclopentyl)-4-oxo-3,4-dihydro-2H-naphtho[2,1-e][1,3]oxazin-6-yl)methyl)pyrrolidine-3-carbonitrile (diastereoisomer)]?
**A.** activity (%) at 10 μM: 102%; pEC50: 7.22

**Q.** How did the “activity (%) at 10 μM” value turn out when `Cn1cc(-c2ccc(Cc3cc4c(c5ccccc35)OCN([C@H]3CCCC[C@@H]3O)C4=O)cn2)cn1` (relative stereo) [Example 41, 3-(trans-2-hydroxycyclohexyl)-6-((6-(1-methyl-1H-pyrazol-4-yl)pyridin-3-yl)methyl)-2,3-dihydro-4H-naphtho[2,1-e][1,3]oxazin-4-one] was run?
**A.** Its value is 104%.

**Q.** And the pEC50?
**A.** The pEC50 was 8.74.
